8 compounds from patent US20260116910A1, “POLYCYCLIC COMPOUNDS AND METHODS THEREOF” (HEPAITECH (BEIJING) BIOPHARMA TECHNOLOGY CO., LTD., priority 2021, published 2026) can be followed below.

Each structure is given as a SMILES string.

The target in one assay is T1, human FXR (NR1H4) (Homo sapiens, UniProt Q96RI1).
T1 sequence (Q96RI1 1-476 isoform Q96RI1-1): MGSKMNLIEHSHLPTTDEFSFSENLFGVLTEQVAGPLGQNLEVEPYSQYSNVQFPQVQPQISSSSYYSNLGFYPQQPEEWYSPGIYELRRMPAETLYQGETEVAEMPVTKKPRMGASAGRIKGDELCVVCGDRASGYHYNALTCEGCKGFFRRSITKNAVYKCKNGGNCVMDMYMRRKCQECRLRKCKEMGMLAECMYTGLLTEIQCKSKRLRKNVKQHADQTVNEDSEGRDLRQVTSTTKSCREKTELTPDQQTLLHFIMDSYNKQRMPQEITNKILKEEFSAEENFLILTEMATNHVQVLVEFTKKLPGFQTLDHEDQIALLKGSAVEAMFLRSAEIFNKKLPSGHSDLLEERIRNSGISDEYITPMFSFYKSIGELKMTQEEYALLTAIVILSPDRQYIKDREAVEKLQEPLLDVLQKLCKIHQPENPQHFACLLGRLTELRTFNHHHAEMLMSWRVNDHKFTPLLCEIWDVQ
Briefly: Human FXR (NR1H4) agonist assessment, FXRE-NanoLuc reporter in HEK293T cells. The assay is classed as cell-based. The conditions noted are these: FXR activation, HEK293T FXRE-NanoLuc reporter, 24 hr; for EC50: read-out: EC50. An outline of the steps: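 HEK293T cells stably expressing human FXR with an FXRE-NanoLuc reporter were treated with compounds for 24 hr at 37 °C, with 0.01% DMSO as negative control. Medium was read for luminescence after 5 min with coelenterazine. EC50 was fitted by sigmoid to concentration-response data.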

A further assay deals with MRGPRX4 (Homo sapiens, UniProt Q96LA9). In words: MRGPRX4 activation, Fluo-8 Ca2+ FLIPR assay in HEK293T cells stably expressing MRGPRX4. It is filed as cell-based. Also noted: key to MRGPRX4 activation, Average / MRGPRX4 activation, Ave.: fluorescence change dF/F0. The conditions noted are these: for EC50: MRGPRX4 activation, Ca2+ fluorescence, no activation in tested range reported as III, read-out: Activity (EC50 μM). An outline of the steps:
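Cells seeded overnight to >95% confluence, loaded 40-60 min at room temperature with 2 μM Fluo-8 AM, then kept in HHBS. Baseline read 30 s, compound added, signal followed 150 s more.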

MRGPRX4, sequence (Q96LA9 whole entry): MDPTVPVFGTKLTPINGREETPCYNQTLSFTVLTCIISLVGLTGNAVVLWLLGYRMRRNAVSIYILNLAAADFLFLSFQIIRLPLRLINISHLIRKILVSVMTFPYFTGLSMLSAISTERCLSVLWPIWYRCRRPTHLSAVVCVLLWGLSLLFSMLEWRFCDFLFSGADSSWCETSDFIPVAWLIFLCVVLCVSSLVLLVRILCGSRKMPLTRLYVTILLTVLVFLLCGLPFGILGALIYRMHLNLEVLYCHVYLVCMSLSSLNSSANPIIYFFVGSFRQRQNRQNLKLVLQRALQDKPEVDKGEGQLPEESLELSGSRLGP

For the compound `CC[C@H]1[C@@H](O)[C@@H]2[C@H](CC[C@]3(C)[C@@H]([C@H](C)CCNC(=O)NS(=O)(=O)c4ccc(C(C)(CO)CO)cc4)CC[C@@H]23)[C@@]2(C)CCCC[C@@H]12` [5-22], the “Efficacy (maximum measured induction of NanoLuc, normalized to CDCA set as 100%)” value on human FXR (NR1H4) is recorded as “C (100%<efficacy <=300%)”. The EC50 at human FXR (NR1H4) is under 1 µM; on MRGPRX4 it was over 100 µM. For the same compound, the “MRGPRX4 activation, fluorescence change (dF/F0), Average” value (from here on “MRGPRX4 activation, fluorescence change”) on MRGPRX4 (Conc. (Log[M]) −4.0) came to 0.020; on MRGPRX4 (Conc. (Log[M]) −4.5) it was 0.018; at MRGPRX4 (Conc. (Log[M]) −5.0), 0.013; on MRGPRX4 (Conc. (Log[M]) −5.4), 0.013; at MRGPRX4 (Conc. (Log[M]) −5.9) it was 0.011; at MRGPRX4 (Conc. (Log[M]) −6.4), 0.016. Besides, the “MRGPRX4 activation, fluorescence change” value at MRGPRX4 (Conc. (Log[M]) −6.9) worked out at 0.016; on MRGPRX4 (Conc. (Log[M]) −7.3), 0.018; on MRGPRX4 (Conc. (Log[M]) −7.8), 0.014; on MRGPRX4 (Conc. (Log[M]) −8.3) it was 0.016.
For the compound `CC[C@H]1[C@@H](O)[C@@H]2[C@H](CC[C@]3(C)[C@@H]([C@H](C)CCNC(=O)NS(=O)(=O)c4cc(F)ccc4F)CC[C@@H]23)[C@@]2(C)CCCC[C@@H]12` [5-23], the “Efficacy (maximum measured induction of NanoLuc, normalized to CDCA set as 100%)” value at human FXR (NR1H4) is on record as “A (efficacy >400%)”. For the same compound, the EC50 was under 1 µM at human FXR (NR1H4) and over 100 µM on MRGPRX4. Besides, the “MRGPRX4 activation, Ave.” value is −0.027 on MRGPRX4 (E3-7, Conc. (Log[M]) −4); −0.027 at MRGPRX4 (E3-7, Conc. (Log[M]) −4.5); −0.014 on MRGPRX4 (E3-7, Conc. (Log[M]) −5); −0.054 at MRGPRX4 (E3-7, Conc. (Log[M]) −5.5); −0.041 on MRGPRX4 (E3-7, Conc. (Log[M]) −6); 0.000 at MRGPRX4 (E3-7, Conc. (Log[M]) −7).
For the compound `CC[C@H]1[C@@H](O)[C@@H]2[C@H](CC[C@]3(C)[C@@H]([C@H](C)CCNC(=O)NS(=O)(=O)c4cc(F)cc(F)c4)CC[C@@H]23)[C@@]2(C)CCCC[C@@H]12` [5-24], the “Efficacy (maximum measured induction of NanoLuc, normalized to CDCA set as 100%)” value on human FXR (NR1H4) was “B (300%<efficacy <=400%)”. The EC50 at human FXR (NR1H4) was under 1 µM. Further, the “MRGPRX4 activation, fluorescence change” value is listed as 0.021 at MRGPRX4 (Conc. (Log[M]) −4.0); 0.012 at MRGPRX4 (Conc. (Log[M]) −4.5); 0.021 at MRGPRX4 (Conc. (Log[M]) −5.0); 0.019 at MRGPRX4 (Conc. (Log[M]) −5.4); 0.011 at MRGPRX4 (Conc. (Log[M]) −5.9); 0.013 at MRGPRX4 (Conc. (Log[M]) −6.4). Moreover, the “MRGPRX4 activation, fluorescence change” value turned out to be 0.013 on MRGPRX4 (Conc. (Log[M]) −6.9), 0.013 at MRGPRX4 (Conc. (Log[M]) −7.3), 0.008 at MRGPRX4 (Conc. (Log[M]) −7.8) and 0.011 on MRGPRX4 (Conc. (Log[M]) −8.3).
For the compound `CC[C@H]1[C@@H](O)[C@@H]2[C@H](CC[C@]3(C)[C@@H]([C@H](C)CCNC(=O)NS(=O)(=O)c4cccs4)CC[C@@H]23)[C@@]2(C)CCCC[C@@H]12` [5-25], the “Efficacy (maximum measured induction of NanoLuc, normalized to CDCA set as 100%)” value on human FXR (NR1H4) was “C (100%<efficacy <=300%)”. Further, the EC50 on human FXR (NR1H4) was 1 to 10 µM; on MRGPRX4 it was over 100 µM. For the same compound, the “MRGPRX4 activation, Average” value is listed as 0.393 on MRGPRX4 (E3-9, Conc. (Log[M]) −4.0); 0.016 on MRGPRX4 (E3-9, Conc. (Log[M]) −4.5); 0.001 on MRGPRX4 (E3-9, Conc. (Log[M]) −5.0); 0.016 on MRGPRX4 (E3-9, Conc. (Log[M]) −5.4); 0.011 at MRGPRX4 (E3-9, Conc. (Log[M]) −5.9); 0.011 at MRGPRX4 (E3-9, Conc. (Log[M]) −6.4). The “MRGPRX4 activation, Average” value is reported as 0.008 at MRGPRX4 (E3-9, Conc. (Log[M]) −6.9); 0.013 on MRGPRX4 (E3-9, Conc. (Log[M]) −7.3); 0.013 at MRGPRX4 (E3-9, Conc. (Log[M]) −7.8); 0.018 on MRGPRX4 (E3-9, Conc. (Log[M]) −8.3).
Take `CC[C@H]1[C@@H](O)[C@@H]2[C@H](CC[C@]3(C)[C@@H]([C@H](C)CCNC(=O)NS(=O)(=O)c4ccc5c(c4)CCC(C)(C)O5)CC[C@@H]23)[C@@]2(C)CCCC[C@@H]12` [5-29]: the “Efficacy (maximum measured induction of NanoLuc, normalized to CDCA set as 100%)” value on human FXR (NR1H4) is “A (efficacy >400%)”. The EC50 was under 1 µM on human FXR (NR1H4) and over 100 µM at MRGPRX4. For the same compound, the “MRGPRX4 activation, Average” value on MRGPRX4 (E3-9, Conc. (Log[M]) −4.0) amounted to 0.014; at MRGPRX4 (E3-9, Conc. (Log[M]) −4.5), 0.014; at MRGPRX4 (E3-9, Conc. (Log[M]) −5.0), 0.010; on MRGPRX4 (E3-9, Conc. (Log[M]) −5.4) it was 0.018; on MRGPRX4 (E3-9, Conc. (Log[M]) −5.9), 0.016; at MRGPRX4 (E3-9, Conc. (Log[M]) −6.4) it was 0.018. In addition, the “MRGPRX4 activation, Average” value on MRGPRX4 (E3-9, Conc. (Log[M]) −6.9) was determined as 0.018; on MRGPRX4 (E3-9, Conc. (Log[M]) −7.3) it was 0.016; at MRGPRX4 (E3-9, Conc. (Log[M]) −7.8), 0.020; at MRGPRX4 (E3-9, Conc. (Log[M]) −8.3) it was 0.018.
Consider `CC[C@H]1[C@@H](O)[C@@H]2[C@H](CC[C@]3(C)[C@@H]([C@H](C)CCNC(=O)NS(=O)(=O)c4ccc(N5CCCCC5)nc4)CC[C@@H]23)[C@@]2(C)CCCC[C@@H]12` [5-30], for which, at human FXR (NR1H4), the “Efficacy (maximum measured induction of NanoLuc, normalized to CDCA set as 100%)” value was “A (efficacy >400%)”. In addition, the EC50 was under 1 µM at human FXR (NR1H4) and over 100 µM at MRGPRX4. In addition, the “MRGPRX4 activation, Average” value is given as 0.014 on MRGPRX4 (E3-9, Conc. (Log[M]) −4.0); 0.018 at MRGPRX4 (E3-9, Conc. (Log[M]) −4.5); 0.014 on MRGPRX4 (E3-9, Conc. (Log[M]) −5.0); 0.027 at MRGPRX4 (E3-9, Conc. (Log[M]) −5.4); 0.018 at MRGPRX4 (E3-9, Conc. (Log[M]) −5.9); 0.023 on MRGPRX4 (E3-9, Conc. (Log[M]) −6.4). In addition, the “MRGPRX4 activation, Average” value turned out to be 0.021 at MRGPRX4 (E3-9, Conc. (Log[M]) −6.9); 0.025 at MRGPRX4 (E3-9, Conc. (Log[M]) −7.3); 0.018 at MRGPRX4 (E3-9, Conc. (Log[M]) −7.8); 0.028 on MRGPRX4 (E3-9, Conc. (Log[M]) −8.3).
Take `CC[C@H]1[C@@H](O)[C@@H]2[C@H](CC[C@]3(C)[C@@H]([C@H](C)CCNS(=O)(=O)c4cc(F)ccc4F)CC[C@@H]23)[C@@]2(C)CCCC[C@@H]12` [6-2]: the “Efficacy (maximum measured induction of NanoLuc, normalized to CDCA set as 100%)” value at human FXR (NR1H4) is “C (100%<efficacy <=300%)”. The EC50 was 1 to 10 µM on human FXR (NR1H4) and over 100 µM at MRGPRX4. In addition, the “MRGPRX4 activation, Average” value was 0.030 on MRGPRX4 (E3-9, Conc. (Log[M]) −4.0); 0.023 on MRGPRX4 (E3-9, Conc. (Log[M]) −4.5); 0.013 on MRGPRX4 (E3-9, Conc. (Log[M]) −5.0); 0.020 at MRGPRX4 (E3-9, Conc. (Log[M]) −5.4); 0.016 at MRGPRX4 (E3-9, Conc. (Log[M]) −5.9); 0.016 on MRGPRX4 (E3-9, Conc. (Log[M]) −6.4). Moreover, the “MRGPRX4 activation, Average” value at MRGPRX4 (E3-9, Conc. (Log[M]) −6.9) was found to be 0.016; on MRGPRX4 (E3-9, Conc. (Log[M]) −7.3), 0.018; on MRGPRX4 (E3-9, Conc. (Log[M]) −7.8), 0.011; on MRGPRX4 (E3-9, Conc. (Log[M]) −8.3), 0.018.
As to `CC[C@H]1[C@@H](O)[C@@H]2[C@H](CC[C@]3(C)[C@@H]([C@H](C)CCNS(=O)(=O)C[C@]45CC[C@H](CC4=O)C5(C)C)CC[C@@H]23)[C@@]2(C)CCCC[C@@H]12` [6-3], the “Efficacy (maximum measured induction of NanoLuc, normalized to CDCA set as 100%)” value at human FXR (NR1H4) was “C (100%<efficacy <=300%)”. In addition, the EC50 on human FXR (NR1H4) was 1 to 10 µM; at MRGPRX4, over 100 µM. Besides, the “MRGPRX4 activation, Average” value at MRGPRX4 (E3-9, Conc. (Log[M]) −4.0) turned out to be 0.016; on MRGPRX4 (E3-9, Conc. (Log[M]) −4.5), 0.008; on MRGPRX4 (E3-9, Conc. (Log[M]) −5.0), 0.020; on MRGPRX4 (E3-9, Conc. (Log[M]) −5.4), 0.016; at MRGPRX4 (E3-9, Conc. (Log[M]) −5.9) it was 0.018; at MRGPRX4 (E3-9, Conc. (Log[M]) −6.4), 0.018. In addition, the “MRGPRX4 activation, Average” value on MRGPRX4 (E3-9, Conc. (Log[M]) −6.9) is given as 0.011; at MRGPRX4 (E3-9, Conc. (Log[M]) −7.3), 0.018; at MRGPRX4 (E3-9, Conc. (Log[M]) −7.8), 0.020; on MRGPRX4 (E3-9, Conc. (Log[M]) −8.3), 0.013.

The EC50 is the concentration at which the effect is half-maximal.
